In patent publication US8252942B2, “Substituted imidazoline compounds” (Board of Trustees of Michigan State University, priority 2008, dated 2012):

What was measured:
RPMI-8226 cells = assay: Cell death in multiple myeloma cells, MTS assay; format: cell-based; details: Homo sapiens, RPMI-8226, 24 h
Description: RPMI-8226 cells were treated with various concentrations of TCH-013 in duplicate and incubated for 24 hours. Percent survival was extrapolated based on mitochondrial activity as determined by MTS assay.
(§1) Given the critical role NF-κB-mediated IL-6 production plays in the growth and […] of multiple myeloma, we investigated the use of TCH-013 in somewhat more detail in a MM cell line (RPMI-8226).

[1] = test system: white blood cells (lymphocytes) in human blood; assay: Cytotoxicity towards lymphocytes in human blood; format: cell-based; details: human blood exposed 24 hours, lymphocyte survival, effective concentrations (<20 μM) (FIG. 11)
Description: Human blood was exposed to TCH-013 (imidazoline 1) for 24 hours at various concentrations and the lymphocytes were evaluated for survival.
as §1

Structure (SMILES)	CC50 (RPMI-8226 cells) [µM]	cytotoxicity towards white blood cells [1]
CCOC(=O)[C@@]1(c2ccccc2)N=C(c2ccccc2)N(Cc2ccccc2)[C@H]1c1ccccc1 (racemic) [TCH-013]	4	no significant cytotoxicity
COc1cccc2c1C(=O)c1c(O)c3c(c(O)c1C2=O)C[C@@](O)(C(=O)CO)C[C@@H]3O[C@H]1C[C@H](N)[C@H](O)[C@H](C)O1 [doxorubicin]	1.2	–
N[C@@H](Cc1ccc(N(CCCl)CCCl)cc1)C(=O)O [melphalan]	30.6	–
